Experimental data published in patent publication US8592421B2, “Cyclic bioisosters of purine system derivatives and a pharmaceutical composition based thereon” (priority 2003, dated 2013).

Tests used:
[1] = Morphine abstinence model: indicator enzymes ALT, AST, γ-GTP in blood plasma; conditions: 20.0 mg/kg intramuscularly three times a day; for γ-GTP in blood plasma, Ci: control 6.261 ± 1.80; for ALT in blood plasma, Ci: control 106.76 ± 111.35; for AST in blood plasma, Ci: control 179.881 ± 11.94
Experimental: The experiments were carried out on rats in series of 7 animals on each compound according to the invention. Non-morphinized animal with not administered with compounds according to the invention were used as a control group. […] Then the rats were decapitated, the blood from somnolent arteries was collected in test tubes with solution EDTA as an anticoagulant, centrifuged at 1500 g for 15 minutes at 4° C.
To estimate possible hepatoprotective action of the compounds according to the invention under conditions of development of an oxidizing stress in the liver cells, effect of these compounds on the most important biochemical blood indexes, in particular, on the content in blood plasma of indicator enzyme of aspartateaminotransferase (AST), alanineaminotransferase (ALT), γ-glutamiletranspeptidase (γ-GTP) was investigated. The content of enzymes was estimated by their catalyzing activity in blood plasma.
The activity of AST, ALT and γ-GTP was determined by means of diagnostic sets DiaSys, Germany.

[2] = Chronic toxicity of suppositories: indexes of urine; type: in vivo, rats; conditions: rats, suppositories rectal, 1 month after administration
Experimental: The experiments were conducted on inbred rats.

[3] = Chronic toxicity of suppositories: indexes of peripheral blood; type: in vivo, rats; conditions: male rats, suppositories rectally; for Basophiles / Juveniles: 1 month/2 months (one value given), control 0
Experimental: Two doses of preparations used in the experiments: 50 mg/kg and 500 mg/kg. Before the administration, the suppositories were softened by heating in a glass water bath at a temperature of 38-39° C., the soft mass was collected in tuberculin syringe in a volume of 1 ml, a needle with oliva was attached to the syringe, and the preparatory mass was introduced into the rectum of the animal for a depth of 1.5-2.0 cm. The animals of the control group were administered with sterile medical liquid paraffin in a volume corresponding to the volume of the investigated suppository. A complete course of administration of drugs to the animals was two months. A complex of laboratory diagnostic investigations was carried out one month after the beginning of the administration of the preparation to the animal—in a middle of the course (8 animals), two months after ending the course (8 animals) and three months after ending the recovery period of one month (8 animals). The mass of the body of the rats in the first month of administration of the preparation was determined weekly, and then once in two weeks. On the basis of the dynamics of an index of the mass of the animal body, the volume of preparation being administered was corrected taking into account the test dose.

[4] = tested on: plasma hemostasis; experiment: Prothrombin time after intravenous administration; type: in vivo, rabbit
Experimental: The static parameters of the blood and plasma coagulation (partial activated thromboplastin time, thrombin time, maximum coagulation activity (test for auto coagulation) were determined using the Behnk Electronic coagulometer (Germany). The operating principle of this instrument is based on the fact that the formed blood clot breaks the contacts of the pulse counter in the flask-pin circuit, said pin permanently oscillating in a vertical plane. The moment of formation of the clot is registered by stopping the stop watch hand.
The measurements were effected at a constant temperature of 37° C. maintained by a temperature control unit.
The method of its determination is based on estimation of the coagulation of citrate or oxalic blood plasma, when it is mixed with thromboplastin and a calcium chloride solution. Since under these conditions the time of formation of the clot depends on the content of II, VII, IX and X factors in the investigated plasma sample, now the test is called “thromboplastin time by Quick” or “activity thromboplastin complex”.
Citrate blood containing 1 part of citrate per 9 parts of native blood was centrifuged at 3000 rev/min for 10 minutes to obtain plasma deprived of thrombocytes.
Added into a test tube in a water bath were 0.1 ml of plasma and 0.1 ml of a thromboplastin solution.

O=c1[nH][nH]c(=O)c2ncccc12.[Li] [Compound 6, lithium salt of pyrido[2,3-d]-6H-pyridazine-5,8-dione]
γ-GTP in blood plasma, Ci ([1]; Control + compound): 8.27 ± 2.12 mE/l | ALT in blood plasma, Ci ([1]; Control + compound): 114.5 ± 1.13 mE/l | AST in blood plasma, Ci ([1]; Control + compound): 176.18 ± 3.26 mE/l | γ-GTP in blood plasma, Ci ([1]; control + Morphine + Compound): 12.52 ± 2.02 mE/l | ALT in blood plasma, Ci ([1]; control + Morphine + Compound): 122.44 ± 2.01 mE/l | AST in blood plasma, Ci ([1]; control + Morphine + Compound): 198.34 ± 9.32 mE/l

Nc1cccc2c(=O)[nH][nH]c(=O)c12.[Na] [Compound 15, sodium salt of 5-amino-benzo[d]-3H-pyridazine-1,4-dione]
γ-GTP in blood plasma, Ci ([1]; Control + compound): 7.03 ± 2.82 mE/l | ALT in blood plasma, Ci ([1]; Control + compound): 113.48 ± 2.39 mE/l | AST in blood plasma, Ci ([1]; Control + compound): 173.46 ± 5.63 mE/l | γ-GTP in blood plasma, Ci ([1]; control + Morphine + Compound): 10.69 ± 1.84 mE/l | ALT in blood plasma, Ci ([1]; control + Morphine + Compound): 121.08 ± 5.04 mE/l | AST in blood plasma, Ci ([1]; control + Morphine + Compound): 195.57 ± 18.68 mE/l | Bilirubin (urine) ([2]; dose 50 mg/kg): <5 Mkmol/l | Glucose (urine) ([2]; dose 50 mg/kg): <6 mmol/L | Ketone bodies (urine) ([2]; dose 50 mg/kg): <1 mmol/L | Potassium (urine) ([2]; dose 50 mg/kg): 5.28 ± 1.5 g/L | Protein (urine) ([2]; dose 50 mg/kg): 0.71 ± 0.274 g/L | Sodium (urine) ([2]; dose 50 mg/kg): 1.2 ± 0.4 g/L | Urea (urine) ([2]; dose 50 mg/kg): 413 ± 128 mmol/L | Urobilinogen (urine) ([2]; dose 50 mg/kg): <17 Mkmol/l | pH (urine) ([2]; dose 50 mg/kg): 6.3 ± 0.4 | Bilirubin (urine) ([2]; dose 500 mg/kg): <5 Mkmol/l | Glucose (urine) ([2]; dose 500 mg/kg): <6 mmol/L | Ketone bodies (urine) ([2]; dose 500 mg/kg): <1 mmol/L | Potassium (urine) ([2]; dose 500 mg/kg): 6.13 ± 1.6 g/L | Protein (urine) ([2]; dose 500 mg/kg): 0.87 ± 0.24 g/L | Sodium (urine) ([2]; dose 500 mg/kg): 0.64 ± 0.4 g/L | Urea (urine) ([2]; dose 500 mg/kg): 485 ± 131 mmol/L | Urobilinogen (urine) ([2]; dose 500 mg/kg): <17 Mkmol/l | pH (urine) ([2]; dose 500 mg/kg): 6.2 ± 0.3 | Basophiles ([3]; 50 mg/kg): 0% | Juveniles ([3]; 50 mg/kg): 0% | Stab neutrophil ([3]; 50 mg/kg, 1 month, control 0.8 ± 0.4): 1.2 ± 0.5% | REE ([3]; 50 mg/kg, 1 month, control 2.2 ± 0.4): 1.8 ± 0.4 mm/h | Reticulocytes ([3]; 50 mg/kg, 1 month, control 2.8%0.3): 2.6 ± 0.2% | Eosinophiles ([3]; 50 mg/kg, 1 month, control 4.0 + 0.3): 3.2 ± 1.0% | Erythrocytes ([3]; 50 mg/kg, 1 month, control 5.6 ± 0.1): 5.7 ± 0.2 mln/mm^3 | Hemoglobin ([3]; 50 mg/kg, 1 month, control 10.5 ± 0.2): 10.6 ± 0.2 mmol/L | Leukocyte ([3]; 50 mg/kg, 1 month, control 17.4 ± 1.3): 14.8 ± 2.0 thousand/mm^3 | Haematocrite ([3]; 50 mg/kg, 1 month, control 45.9 ± 1.7): 47.9 ± 1.4% | Average volume of erythrocytes ([3]; 50 mg/kg, 1 month, control 81.4 ± 1.7): 84.4 ± 1.5 Mkm^3 | Coagulation, time ([3]; 50 mg/kg, 1 month, control 152 ± 10.2): 140 ± 12.2 s | REE ([3]; 50 mg/kg, 2 months, control 1.4 ± 0.2): 1.6 ± 0.2 mm/h | Stab neutrophil ([3]; 50 mg/kg, 2 months, control 2.4 ± 0.4): 0.8 ± 0.5% | Reticulocytes ([3]; 50 mg/kg, 2 months, control 2.9 ± 0.2): 3.0 ± 0.1% | Eosinophiles ([3]; 50 mg/kg, 2 months, control 4.4 + 1.2): 3.6 ± 1.2% | Erythrocytes ([3]; 50 mg/kg, 2 months, control 6.1 ± 0.1): 6.0 ± 0.1 mln/mm^3 | Hemoglobin ([3]; 50 mg/kg, 2 months, control 11.4 ± 0.2): 11.2 ± 0.1 mmol/L | Leukocyte ([3]; 50 mg/kg, 2 months, control 19.1 ± 1.9): 16.3 ± 1.0 thousand/mm^3 | Haematocrite ([3]; 50 mg/kg, 2 months, control 45.9 ± 1.8): 47.5 ± 1.2% | Average volume of erythrocytes ([3]; 50 mg/kg, 2 months, control 74.6 + 1.9): 78.6 ± 1.5 Mkm^3 | Coagulation, time ([3]; 50 mg/kg, 2 months, control 316 ± 8): 321 ± 12 s | Basophiles ([3]; 500 mg/kg): 0% | Juveniles ([3]; 500 mg/kg): 0% | Stab neutrophil ([3]; 500 mg/kg, 1 month, control 0.8 ± 0.4): 0.8 ± 0.5/0.8 ± 0.5% | REE ([3]; 500 mg/kg, 1 month, control 2.2 ± 0.4): 2.2 ± 0.4 mm/h | Reticulocytes ([3]; 500 mg/kg, 1 month, control 2.8%0.3): 3.1 ± 0.2% | Eosinophiles ([3]; 500 mg/kg, 1 month, control 4.0 + 0.3): 3.0 ± 1.0% | Erythrocytes ([3]; 500 mg/kg, 1 month, control 5.6 ± 0.1): 5.7 ± 0.1 mln/mm^3 | Hemoglobin ([3]; 500 mg/kg, 1 month, control 10.5 ± 0.2): 10.6 ± 0.2 mmol/L | Leukocyte ([3]; 500 mg/kg, 1 month, control 17.4 ± 1.3): 17.0 ± 1.4 thousand/mm^3 | Haematocrite ([3]; 500 mg/kg, 1 month, control 45.9 ± 1.7): 47.6 ± 1.3% | Average volume of erythrocytes ([3]; 500 mg/kg, 1 month, control 81.4 ± 1.7): 82.6 ± 1.1 Mkm^3 | Coagulation, time ([3]; 500 mg/kg, 1 month, control 152 ± 10.2): 151 ± 6.4 s | REE ([3]; 500 mg/kg, 2 months, control 1.4 ± 0.2): 1.8 ± 0.4 mm/h | Stab neutrophil ([3]; 500 mg/kg, 2 months, control 2.4 ± 0.4): 0.8 ± 0.5/0.8 ± 0.5% | Reticulocytes ([3]; 500 mg/kg, 2 months, control 2.9 ± 0.2): 3.3 ± 0.3% | Eosinophiles ([3]; 500 mg/kg, 2 months, control 4.4 + 1.2): 3.2 ± 1.4% | Erythrocytes ([3]; 500 mg/kg, 2 months, control 6.1 ± 0.1): 6.7 ± 0.2 mln/mm^3 | Hemoglobin ([3]; 500 mg/kg, 2 months, control 11.4 ± 0.2): 12.5 ± 0.4 mmol/L | Leukocyte ([3]; 500 mg/kg, 2 months, control 19.1 ± 1.9): 21.1 ± 2.4 thousand/mm^3 | Haematocrite ([3]; 500 mg/kg, 2 months, control 45.9 ± 1.8): 53.9 ± 2.1% | Average volume of erythrocytes ([3]; 500 mg/kg, 2 months, control 74.6 + 1.9): 80.21 ± 1.2 Mkm^3 | Coagulation, time ([3]; 500 mg/kg, 2 months, control 316 ± 8): 308 ± 16 s | prothrombin time, T ([4]; 15.0 mg/kg intravenously, after 15 minutes, control 11.8 ± 0.1): 11.5 ± 0.2 s | prothrombin time, T ([4]; 15.0 mg/kg intravenously, after 30 minutes, control 11.8 ± 0.1): 11.7 ± 0.2 s | prothrombin time, T ([4]; 15.0 mg/kg intravenously, after 60 minutes, control 11.8 ± 0.1): 11.2 ± 0.2 s | prothrombin time, T ([4]; 15.0 mg/kg intravenously, after 120 minutes, control 11.8 ± 0.1): 11.5 ± 0.2 s | prothrombin time, T ([4]; 30.0 mg/kg intravenously, after 15 minutes, control 11.2 ± 0.1): 11.0 ± 0.2 s | prothrombin time, T ([4]; 30.0 mg/kg intravenously, after 30 minutes, control 11.2 ± 0.1): 11.2 ± 0.2 s | prothrombin time, T ([4]; 30.0 mg/kg intravenously, after 60 minutes, control 11.2 ± 0.1): 11.4 ± 0.2 s | prothrombin time, T ([4]; 30.0 mg/kg intravenously, after 120 minutes, control 11.2 ± 0.1): 11.3 ± 0.2 s | prothrombin time, T ([4]; 60.0 mg/kg intravenously, after 15 minutes, control 12.0 ± 0.1): 12.0 ± 0.1 s | prothrombin time, T ([4]; 60.0 mg/kg intravenously, after 30 minutes, control 12.0 ± 0.1): 12.0 ± 0.1 s | prothrombin time, T ([4]; 60.0 mg/kg intravenously, after 60 minutes, control 12.0 ± 0.1): 12.0 ± 0.2 s | prothrombin time, T ([4]; 60.0 mg/kg intravenously, after 120 minutes, control 12.0 ± 0.1): 12.0 ± 0.1 s | effect on the prothrombin time index ([4]; doses of 15.0, 30.0, 60.0 mg/kg): have no effect on the prothrombin time index

O=c1[nH][nH]c(=O)c2nccnc12.[Li] [Compound 25, lithium salt of pyrazine[2,3-d]-6H-pyridazine-5,8-dione]
γ-GTP in blood plasma, Ci ([1]; Control + compound): 7.57 ± 1.93 mE/l | ALT in blood plasma, Ci ([1]; Control + compound): 115.27 ± 1.09 mE/l | AST in blood plasma, Ci ([1]; Control + compound): 177.34 ± 6.13 mE/l | γ-GTP in blood plasma, Ci ([1]; control + Morphine + Compound): 11.37 ± 1.54 mE/l | ALT in blood plasma, Ci ([1]; control + Morphine + Compound): 121.96 ± 3.4 mE/l | AST in blood plasma, Ci ([1]; control + Morphine + Compound): 196.46 ± 15.34 mE/l
